According to patent US6376429B1, “Benzoylcyclohexanediones, process for their preparation and their use as herbicides and plant growth regulators” (Hoechst Schering AgrEvo GmbH, priority 1998, dated 2002):

Tested on: Sinapis arvensis
Assay: Weed action preemergence
Assay type: in vivo
Conditions: dose of 1 kg of active substance or less per hectare, visual assessment after 3 to 4 weeks vs untreated controls
Excerpt: Seeds of mono- and dicotyledonous weed plants are put into sandy loam soil in cardboard pots and covered with soil. The compounds according to the invention in the form of wettable powders or emulsion concentrates are then applied to the surface of the covering soil as an aqueous suspension or emulsion with a water application rate of 600 to 800 l/ha after conversion in a dose of 1 kg of active substance or less per hectare after conversion. After the treatment, the pots are placed in a greenhouse and kept under good growth conditions for the weeds. The visual assessment of the plants or emergence damage is carried out after the emergence of the test plants after a test period of 3 to 4 weeks in comparison with untreated controls. In this case, for example, the compounds of Example Nos. 5, 33 and 19 show an at least 80% action against Stellaria media, Lolium multiflorum and Amaranthus retroflexus. The compounds of Example Nos. 2 and 8 show an at least 90% action against Amaranthus retroflexus, Stellaria media and Setaria viridis. The compounds of Example Nos. 2 and 18 show a 100% action against Amaranthus retroflexus and Sinapis arvensis.

CS(=O)(=O)c1ccc(C(=O)C2C(=O)CCCC2=O)c(Cl)c1COc1ccccc1 [Example 2, 2-(2-chloro-4-methylsulfonyl-3-phenoxymethylbenzoyl)cyclohexane-1,3-dione]
action against Sinapis arvensis: 100%
